Laboratory results from US20240043473A1, “NOOTROPIC PEPTIDES FOR TREATING LYSOSOMAL STORAGE DISEASES” (Phoenix Nest Inc., priority 2021, published 2024).
“Also recorded” adds a separate entry of the source. No end group written: not given here.

Key:
[1] = tested on: CA1 pyramidal neurons in acute hippocampal slices from Hgsnat-Geo and Hgsnat^P304L mice; assay: Miniature excitatory postsynaptic currents (mEPSC), whole cell voltage clamp in acute hippocampal slices; assay type: cell-based, mouse; settings: for mEPSC amplitude and frequency deficits: Hgsnat-Geo and Hgsnat^P311L (P304L) slices
Experimental: Models and developmental time points: Hippocampal slices from Hgsnat-Geo and Hgsnat^P304L mice; P14-20 and P45-60.
Method: Whole cell voltage clamp electrophysiology recordings (miniature synaptic currents) were conducted on CA1 pyramidal neurons in acute hippocampal slices.
Acute hippocampal slices were prepared as follows. Briefly, animals were anaesthetized deeply with isoflurane and decapitated. The brain was dissected carefully and transferred rapidly into an ice-cold (0-4° C.) solution containing the following (in mM): 250 sucrose, 2 KCl, 1.25 NaH2PO4, 26 NaHCO3, 7 MgSO4, 0.5 CaCl2 and 10 glucose, pH 7.4. The solution was oxygenated continuously with 95% O2 and 5% CO2, 330-340 mOsm/L. Transverse hippocampal slices (thickness, 300 μm) were cut using a vibratome (VT1000S; Leica Microsystems), transferred to a bath at room temperature (23° C.) with standard ACSF at pH 7.4 containing the following (in mM): 126 NaCl, 3 KCl, 1 NaH2PO^4, 25 NaHCO3, 2 MgSO4, 2 CaCl2), 10 glucose, continuously saturated with 95% 02 and 5% CO2 and allowed to recover for 1 h. During the experiments, slices were transferred to the recording chamber at physiological temperature (30-33° C.) continuously perfused with standard ACSF, as described above, at 2 ml/min. Pyramidal CA1 neurons from the hippocampus were identified visually using a 40× water immersion objective. Whole-cell patch-clamp recordings were obtained from single cells in voltage- or current-clamp mode and only 1 cell per slice was recorded to enable post-hoc identification and immunohistochemical processing. Recording pipettes (4-6 MΩ) were filled with a K-gluconate based solution for voltage-clamp recordings (in mM): 130 K-gluconate, 10 KCl, 5 diNa-phosphocreatine. 10 HEPES, 2.5 MgCl2, 0.5CaCl2,1 EGTA, 3 ATP-Tris, 0.4 GTP-Li, 0.3% biocytin, pH 7.2-7.4, 280-290 mOsm/L.
After obtaining whole cell configuration, passive membrane properties were monitored for 5 min and current clamp recordings were done to measure action potential characteristics. […]. Cells were voltage clamped at −70 mV for mEPSCs recording and then held at 0 mV (calculated from the reversal potential of Cl) for mIPSCs recording. Data acquisition (filtered at 2-3 kHz and digitized at 15 kHz; Digidata 1440A, Molecular Devices, CA, USA) was performed using the Axopatch 200B amplifier and the Clampex 10.6 software (Molecular Devices). Both mEPSCs and mIPSCs were recorded for 7 min and a running template on a stable baseline (minimum of 30 events) was used for the analysis of miniature events on MiniAnalysis. Clampfit 10.2 software was used for analysis of action potential characteristics and other passive membrane properties.
This example tested AVP6's effect on synaptic signaling in acute hippocampal slices of MPS IIIC (both Hgsnat^Geo and Hgsnat^P304L) mice. […]

[2] = tested on: Hgsnat^P304L MPS IIIC mice; assay: Open Field test; assay type: in vivo, mouse; settings: 6-month-old Hgsnat^P311L (P304L) mice
[3] = tested on: Hgsnat^P304L MPS IIIC mice; assay: Open Field test; assay type: in vivo, mouse; settings: for Open Field behaviour in WT mice vs saline: chronic daily treatment
Experimental: Method: Open field test that explores behaviour of animals in open area. Rodents normally avoid the center of the arena (anxiety reflex) and spend certain time immobile (freezing reflex). […]
The open-field test was performed as previously described. Briefly, mice were habituated in the experimental room for 45 mins before the commencement of the test. Each mouse was then gently placed in the center of the open-field arena and allowed to explore for 20 min. The mouse was removed and transferred to its home cage after the test, and the arena was cleaned with 70% ethanol before the commencement of the next test. Analysis of the behavioral activity was done using the Smart video tracking software (v3.0, Panlab Harvard Apparatus), and total distance traveled and percent of time spent in the center zone were measured for hyperactivity and anxiety assessment, respectively.
Starting from 3 weeks of age, WT C57B16 and homozygous Hgsnat^P304L male and female mice were randomly divided in treatment and control groups (6-13 mice/sex/genotype/treatment; see Table I). The control group was daily administered with saline (5 μL to each nostril), while for the treatment group, saline was supplemented with 125 µg of AVP6/mL, which would result in a dose of approximately 50 μg/kg BW/day. The peptide formulation was prepared once, aliquoted and kept frozen at −80° C. until use. At 4 months, all mice were studied by EPM, OF, YM and NOR behavioral tests. Administration of the drug or saline was continued through the days on which the assays were conducted. Then approximately at 5 months 4-5 mice in each group were sacrificed. Their blood plasma was collected, and their tissues were either snap-frozen or fixed and cryopreserved to analyze CNS pathology as described above. For the remaining mice, treatment was continued and their behaviour was studied again at the age of 6 months using OF. NOR and YM tests. Starting from the age of 8 months, Hgsnat^P304L treated and untreated mice were daily studied for the signs of urinary retention. When such signs were detected, the mice were studied by ERG and sacrificed within 1-2 days. Finally, the remaining treated and untreated WT mice were studied by ERG and sacrificed at the end of the study, approximately at 10 months of age.
We further tested if AVP6 can rescue neurobehavioral deficits associated with synaptic dysfunction in MPS IIIC mice. The early phase of the disease in both Hgsnat-Geo and Hgsnat^P304L mice manifests with reduced anxiety and hyperactivity. Specifically, in an Open Field (OF) test at both 4 months and 6 months, Hgsnat^P304L mice show a significant increase in a total distance traveled, increased time spent at the center of the arena and increased distance traveled in the center of the arena as compared with the WT animals. […] […] Control groups were treated with the same volume of saline.

[4] = single intranasal 10 μg/kg (low dose)
[5] = single intranasal 500 μg/kg (high dose)
[6] = chronic daily intranasal 50 μg/kg BW from 3 weeks, Hgsnat^P304L male and female mice at 4 months
[7] = chronic daily intranasal 50 μg/kg BW from 3 weeks, Hgsnat^P304L mice at 6 months
[8] = single intranasal 50 μg/kg 17 h before test, Hgsnat^P311L (P304L) mice, 4 and 6 months

## AVP6: N-terminally acetylated Semax, a nootropic peptide having the amino acid sequence of MEHFPGP (SEQ ID NO:1) (Ac-MEHFPGP)
[1]; 10 μM bath application, P14-20
  mEPSC amplitude and frequency deficits: recovered deficits in mEPSC amplitude and frequency; also recorded: deficit is rescued
[1]; 10 μM bath application, P45-60
  mEPSC amplitude and frequency deficits: recovered deficits in mEPSC amplitude and frequency; also recorded: deficit is rescued
[1]; 10 μM bath application, P45-60, WT slices
  mEPSC amplitude and frequency in WT animals: trend for an increase
[1]; acute bath application, MPSIIIC mouse hippocampal slices (Example 1, FIG. 1)
  reduced amplitude and frequency of mEPSC: significant restoration
[2]; [4]
  hyperactivity, Open Field: failed to rescue hyperactivity or reduced anxiety; also recorded: do not rescue hyperactivity
  reduced anxiety, Open Field: failed to rescue hyperactivity or reduced anxiety
[2]; [5]
  hyperactivity, Open Field: failed to rescue hyperactivity or reduced anxiety; also recorded: do not rescue hyperactivity
  reduced anxiety, Open Field: failed to rescue hyperactivity or reduced anxiety
[3]; [6]
  hyperactivity (total distance traveled), Open Field: showed absence of these phenotypes; also recorded: show the rescue of all above deficits
  reduced anxiety (time spent in the center), Open Field: showed absence of these phenotypes; also recorded: show the rescue of all above deficits
[3]; [7]
  hyperactivity (total distance traveled), Open Field: significantly reduced; also recorded: show rescue of all above deficits
  reduced anxiety (time spent in the center), Open Field: significantly reduced; also recorded: show rescue of all above deficits
[3]; WT mice at 4 months
  Open Field behaviour in WT mice vs saline: no difference was observed
[3]; WT mice at 6 months
  Open Field behaviour in WT mice vs saline: No difference in behaviour was observed
[3]; [8]
  hyperactivity (total distance traveled), Open Field: rescues hyperactivity; also recorded: the total traveled distance was reduced; also recorded: Both parameters are normalized
  reduced anxiety (time spent / distance traveled in the center), Open Field: rescues hyperactivity and reduced anxiety; also recorded: time spend in the center increased; also recorded: Both parameters are normalized
